The values that follow come from patent EP4810052A2, “HCRHR2 SELECTIVE POLYPEPTIDES” (Gubra A/S, priority 2023, dated 2026).

SMILES strings stand for the structures. Starred links: 1 amine or outer side, 2 acyl side, 3 side chain; linkers in the order of their positions; H or OH if unused. Non-standard residues stand in square brackets, D forms with d. Residues, ends and D or L forms follow the SMILES beside them. Groups on a side chain read outwards from the residue. *: point of attachment. C20 diacid = O=C(O)CCCCCCCCCCCCCCCCCCC(=O)*; γGlu = O=C(O)[C@H](CCC(=O)[*:2])N[*:1]; NMeI = CC[C@H](C)[C@H](NC)C(=O)O; AEEA = NCCOCCOCC(=O)O; Aib = CC(C)(N)C(=O)O Some results are limits rather than exact numbers.

Series [1] in a line: Size exclusion chromatography for high molecular weight products (HMWP). The format is physicochemical. Particulars: for HMWP formation (SEC analysis) T14-T0 (%): 14 days; for HMWP formation (SEC analysis) T28-T0 (%): 28 days. Here is the method: Dissolved samples were incubated for at least 2 h at room temperature on a rocking table. The main peak purity at time zero (T0) was determined using reversed phase chromatography. The samples were incubated at 40°C for 14 days (T14) and 28 days (T28). The samples were analyzed with reversed phase chromatography and size exclusion chromatography.
Size exclusion chromatography (SEC) was used as an analysis for the formation of high molecular weight products (HMWP, covalent dimers, trimers etc.,). SEC analyses was performed on Thermo Dionex Ultimate UHPLC system with UV detection at 215 nm) equipped with a SEC column (Waters BEH 125Å, 1.7 µm, 300mm x 4.6). Analysis was performed by isocratic elution using 60% buffer B (0.1% TFA in 5:95 H2O: acetonitrile) in buffer A (0.1% TFA in 95:5 H2O: acetonitrile) at a column temperature of 60° C over 20 min. Flowrate was 0.3 mL/min.
Chromatograms were integrated as HMWP (all peaks eluting before the main peak), main peak (assuming this is monomeric peptide) and if relevant LMWP (low molecular weight products, all peaks eluting after main peak). The amount of HMWP was reported as area relative to total area in percent.
Background: Size exclusion chromatography separates by hydrodynamic size, large species first.

In a further series the test system is pCRHR1. Put plainly: cAMP potency, transiently transfected CHO-K1 cells, pCRHR1. The format is cell-based, pig. Particulars: transiently transfected CHO-K1, average n=3; read-out: Transient cell system EC50 (nM) pCRHR 1. As for the experimental part: (§1) Selected peptides were tested for potency on different species (mouse, rat, porcine) using transiently transfected CHO-K1 cells using the general procedure.

For the next series, the target named is T1, hCRHR1 (Homo sapiens, UniProt P34998).
T1 sequence (P34998 24-415): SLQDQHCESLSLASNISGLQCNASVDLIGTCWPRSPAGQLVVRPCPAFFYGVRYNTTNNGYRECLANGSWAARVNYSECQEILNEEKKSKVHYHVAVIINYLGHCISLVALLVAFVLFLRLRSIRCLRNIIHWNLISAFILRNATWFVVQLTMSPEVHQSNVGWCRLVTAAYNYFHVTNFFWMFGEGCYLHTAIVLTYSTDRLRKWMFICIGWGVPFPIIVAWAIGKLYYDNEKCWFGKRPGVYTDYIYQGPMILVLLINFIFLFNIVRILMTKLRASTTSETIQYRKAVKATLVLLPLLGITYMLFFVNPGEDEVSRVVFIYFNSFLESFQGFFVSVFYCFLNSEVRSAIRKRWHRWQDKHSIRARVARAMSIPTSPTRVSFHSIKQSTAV
Put plainly: cAMP potency, transiently transfected CHO-K1 cells, hCRHR1. The format is cell-based. Also on record: DYK (FLAG); host or cells: CHO-K1, transiently transfected. Particulars: transiently transfected CHO-K1, average n=3; read-out: Transient cell system EC50 (nM) hCR HR1.

The target of another series is T2, hCRHR2a (Homo sapiens, UniProt Q13324).
T2 construct: DYK (FLAG); host or cells: CHO-K1, transiently transfected
T2 sequence (Q13324 1-411): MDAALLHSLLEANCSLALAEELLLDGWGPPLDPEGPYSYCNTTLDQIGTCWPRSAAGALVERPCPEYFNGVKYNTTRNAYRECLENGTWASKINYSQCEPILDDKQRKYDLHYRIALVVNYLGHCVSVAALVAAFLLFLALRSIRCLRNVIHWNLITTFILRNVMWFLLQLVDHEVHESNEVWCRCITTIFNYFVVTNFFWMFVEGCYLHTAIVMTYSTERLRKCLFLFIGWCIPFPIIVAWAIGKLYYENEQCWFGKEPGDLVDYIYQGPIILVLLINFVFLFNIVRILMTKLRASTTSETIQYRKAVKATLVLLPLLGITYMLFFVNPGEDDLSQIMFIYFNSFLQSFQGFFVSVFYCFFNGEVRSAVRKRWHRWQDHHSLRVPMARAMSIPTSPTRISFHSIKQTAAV
Briefly: cAMP potency, transiently transfected CHO-K1 cells, hCRHR2a. The series is classed as cell-based. Particulars: transiently transfected CHO-K1, average n=3; read-out: Transient cell system EC50 (nM) hCRHR 2a.

The target of another series is T3, hCRHR2b (Homo sapiens, UniProt Q13324).
T3 construct: DYK (FLAG); host or cells: CHO-K1, transiently transfected
T3 sequence (Q13324 1-438 isoform Q13324-2): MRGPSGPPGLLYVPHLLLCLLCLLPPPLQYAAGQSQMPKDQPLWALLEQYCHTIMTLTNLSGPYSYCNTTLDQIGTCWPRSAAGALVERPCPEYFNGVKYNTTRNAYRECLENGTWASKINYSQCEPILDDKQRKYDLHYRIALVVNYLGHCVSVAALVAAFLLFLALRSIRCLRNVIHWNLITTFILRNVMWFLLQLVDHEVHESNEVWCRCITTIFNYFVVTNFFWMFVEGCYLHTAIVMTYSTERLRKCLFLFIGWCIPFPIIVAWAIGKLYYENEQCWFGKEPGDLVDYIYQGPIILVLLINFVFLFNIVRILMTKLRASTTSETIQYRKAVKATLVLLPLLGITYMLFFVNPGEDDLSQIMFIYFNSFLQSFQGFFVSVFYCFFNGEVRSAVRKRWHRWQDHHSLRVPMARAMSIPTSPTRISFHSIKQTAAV
Put plainly: cAMP potency, transiently transfected CHO-K1 cells, hCRHR2b. Particulars: transiently transfected CHO-K1, average n=3; read-out: Transient cell system EC50 (nM) hCRHR 2b. The format is cell-based.

Another series deals with T4, mCRHR2 (Mus musculus, UniProt Q60748).
T4 construct: DYK (FLAG); host or cells: CHO-K1, transiently transfected
T4 sequence (Q60748 1-431 isoform Q60748-2): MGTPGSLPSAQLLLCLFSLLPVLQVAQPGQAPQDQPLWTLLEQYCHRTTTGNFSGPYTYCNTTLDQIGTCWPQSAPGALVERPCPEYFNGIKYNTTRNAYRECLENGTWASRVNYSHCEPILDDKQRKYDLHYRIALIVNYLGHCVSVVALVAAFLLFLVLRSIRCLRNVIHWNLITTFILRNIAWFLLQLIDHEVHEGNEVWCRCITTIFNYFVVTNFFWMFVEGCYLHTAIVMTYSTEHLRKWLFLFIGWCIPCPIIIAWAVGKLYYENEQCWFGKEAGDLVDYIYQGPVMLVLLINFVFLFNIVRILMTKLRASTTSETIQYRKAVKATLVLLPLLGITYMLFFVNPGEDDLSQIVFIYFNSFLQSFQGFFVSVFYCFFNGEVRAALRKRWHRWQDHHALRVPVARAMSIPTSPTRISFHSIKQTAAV
Put plainly: cAMP potency, transiently transfected CHO-K1 cells, mCRHR2. The series is classed as cell-based. Particulars: transiently transfected CHO-K1, average n=3; read-out: Transient cell system EC50 (nM) mCRH R2. As for the experimental part: as §1

The subject of the next series is pCRHR2. Briefly: cAMP potency, transiently transfected CHO-K1 cells, pCRHR2. The format is cell-based, pig. The settings on record: transiently transfected CHO-K1, average n=3; read-out: Transient cell system EC50 (nM) pCR HR2. As for the experimental part:
as §1

In the next series the target is T5, rCRHR2 (Rattus norvegicus, UniProt P47866).
T5 construct: DYK (FLAG); host or cells: CHO-K1, transiently transfected
T5 sequence (P47866 whole entry): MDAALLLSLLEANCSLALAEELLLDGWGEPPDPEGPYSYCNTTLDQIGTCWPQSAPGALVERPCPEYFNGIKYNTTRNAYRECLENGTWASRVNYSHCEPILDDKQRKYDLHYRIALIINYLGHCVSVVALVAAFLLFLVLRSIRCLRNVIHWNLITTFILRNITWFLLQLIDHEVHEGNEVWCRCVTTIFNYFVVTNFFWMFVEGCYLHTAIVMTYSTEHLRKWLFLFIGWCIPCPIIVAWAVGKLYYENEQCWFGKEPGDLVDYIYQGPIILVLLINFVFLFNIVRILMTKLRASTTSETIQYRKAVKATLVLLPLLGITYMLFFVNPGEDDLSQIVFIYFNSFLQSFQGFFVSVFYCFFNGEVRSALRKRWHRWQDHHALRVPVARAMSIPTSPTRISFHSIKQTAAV
Briefly: cAMP potency, transiently transfected CHO-K1 cells, rCRHR2. The settings on record: transiently transfected CHO-K1, average n=3; read-out: Transient cell system EC50 (nM) rCRHR 2. The series is classed as cell-based. As for the experimental part:
as §1

One may read the EC50 as the concentration at which the effect is half-maximal. In the case of `CC[C@H](C)[C@H](NC)C(=O)N[C@H](C(=O)N[C@@H](CC(C)C)C(=O)N[C@@H](CO)C(=O)N[C@@H](CC(C)C)C(=O)N[C@@H](CC(=O)O)C(=O)N[C@H](C(=O)N1CCC[C@H]1C(=O)N[C@H](C(=O)NCC(=O)N[C@@H](CC(C)C)C(=O)N[C@@H](CC(C)C)C(=O)N[C@@H](CCC(N)=O)C(=O)N[C@H](C(=O)N[C@@H](CC(C)C)C(=O)N[C@@H](CC(C)C)C(=O)N[C@@H](CCC(=O)O)C(=O)N[C@@H](CCC(N)=O)C(=O)N[C@@H](C)C(=O)N[C@@H](CCCNC(=N)N)C(=O)N[C@@H](C)C(=O)N[C@@H](CCCNC(=N)N)C(=O)N[C@@H](C)C(=O)N[C@@H](C)C(=O)N[C@@H](CCCNC(=N)N)C(=O)N[C@@H](CCC(=O)O)C(=O)N[C@@H](CCC(N)=O)C(=O)N[C@@H](C)C(=O)N[C@H](C(=O)N[C@@H](CCCCNC(=O)COCCOCCNC(=O)COCCOCCNC(=O)CC[C@H](NC(=O)CC[C@H](NC(=O)CCCCCCCCCCCCCCCCCCC(=O)O)C(=O)O)C(=O)O)C(=O)N[C@@H](CC(N)=O)C(=O)N[C@@H](C)C(=O)N[C@@H](CCC(=O)O)C(=O)N[C@H](C(=O)N[C@@H](CC(C)C)C(=O)N[C@@H](C)C(=O)N[C@@H](CCC(=O)O)C(=O)N[C@H](C(N)=O)C(C)C)[C@@H](C)CC)[C@@H](C)O)[C@@H](C)CC)[C@@H](C)CC)C(C)C)C(C)C` [SEQ ID NO: 6] (H-[NMeI]VLSLDVPIGLLQILLEQARARAAREQATK([AEEA-AEEA-γGlu-γGlu-C20 diacid])NAEILAEV-NH2), the “HMWP formation (SEC analysis) T14-T0 (%)” value in series [1] (pH 7.0, 40°C) is -0.1%; in series [1] (pH 7.5, 40°C), -0.4%; in series [1] (pH 8.0, 40°C) it was -0.2%. Moreover, the “HMWP formation (SEC analysis) T28-T0 (%)” value in series [1] (pH 7.0, 40°C) is 0.1%; in series [1] (pH 7.5, 40°C) it was -0.4%; in series [1] (pH 8.0, 40°C) it was 0.0%. Besides, the EC50 in the series on pCRHR1 is > 5000 nM; at hCRHR1, > 1000 nM; at hCRHR2a, 0.023 nM; at hCRHR2b, 0.015 nM; on mCRHR2 it was 0.0043 nM; in the series on pCRHR2 it was 0.03 nM. Besides, the concentration for a half-maximal effect (EC50) at rCRHR2 worked out at 0.13 nM.

For the compound `CC[C@H](C)[C@H](NC)C(=O)N[C@H](C(=O)N[C@@H](CC(C)C)C(=O)N[C@@H](CO)C(=O)N[C@@H](CC(C)C)C(=O)N[C@@H](CC(=O)O)C(=O)N[C@H](C(=O)N1CCC[C@H]1C(=O)N[C@H](C(=O)NCC(=O)N[C@@H](CC(C)C)C(=O)N[C@@H](CC(C)C)C(=O)N[C@@H](CCC(N)=O)C(=O)N[C@H](C(=O)N[C@@H](CC(C)C)C(=O)N[C@@H](CC(C)C)C(=O)N[C@@H](CCC(=O)O)C(=O)N[C@@H](CCC(N)=O)C(=O)N[C@@H](C)C(=O)N[C@@H](CCCNC(=N)N)C(=O)N[C@@H](C)C(=O)N[C@@H](CCCNC(=N)N)C(=O)N[C@@H](C)C(=O)N[C@@H](C)C(=O)N[C@@H](CCCNC(=N)N)C(=O)N[C@@H](CCC(=O)O)C(=O)N[C@@H](CCC(N)=O)C(=O)N[C@@H](C)C(=O)N[C@@H](CCCCNC(=O)COCCOCCNC(=O)COCCOCCNC(=O)CC[C@H](NC(=O)CC[C@H](NC(=O)CCCCCCCCCCCCCCCCCCC(=O)O)C(=O)O)C(=O)O)C(=O)N[C@H](C(=O)N[C@@H](CC(N)=O)C(=O)NC(C)(C)C(=O)N[C@@H](CCC(=O)O)C(=O)N[C@H](C(=O)N[C@@H](CC(C)C)C(=O)N[C@@H](C)C(=O)N[C@@H](CCC(=O)O)C(=O)N[C@H](C(N)=O)C(C)C)[C@@H](C)CC)[C@@H](C)O)[C@@H](C)CC)[C@@H](C)CC)C(C)C)C(C)C` [SEQ ID NO: 16] (H-[NMeI]VLSLDVPIGLLQILLEQARARAAREQAK([AEEA-AEEA-γGlu-γGlu-C20 diacid])TN[Aib]EILAEV-NH2), the “HMWP formation (SEC analysis) T14-T0 (%)” value is given as -0.3% in series [1] (pH 7.0, 40°C); 0.0% in series [1] (pH 7.5, 40°C); -0.2% in series [1] (pH 8.0, 40°C). Also, the “HMWP formation (SEC analysis) T28-T0 (%)” value is -0.3% in series [1] (pH 7.0, 40°C); 0.0% in series [1] (pH 7.5, 40°C); -0.3% in series [1] (pH 8.0, 40°C). Also, the EC50 with pCRHR1 was > 5000 nM; on hCRHR1, > 1000 nM; at hCRHR2a, 0.025 nM; at hCRHR2b it was 0.012 nM; on mCRHR2, 0.0049 nM; with pCRHR2, 0.028 nM. Besides, the EC50 at rCRHR2 was determined as 0.19 nM.
